Data as given in US3984395A, “Method of isolating gentamicin C2a” (Schering Corporation, priority 1974, dated 1976).
Values after ≈ are worked out from the molar mass of the structure shown.

Experiments:
[1] = acute intravenous LD50 in mice; settings: mouse, in vivo, male CF-1 mice, 20 grams each
Streptococcus pyogenes C = assay: in vitro MIC, standard tube dilution method; format: cell-based; settings: Mueller-Hinton broth, read-out: minimal inhibitory concentration (MIC)
Text: (§1) In Table 1, set forth below is shown the in vitro minimal inhibitory concentration (MIC) of gentamicin C2a against representative gram-positive and gram-negative bacteria. The results are derived using the standard tube dilution method in Mueller-Hinton broth.

[2] = tested on: Pseudomonas aeruginosa Travers; assay: in vitro MIC, standard tube dilution method; format: cell-based; settings: Pseudomonas aeruginosa Travers (Gentamicin resistant); Mueller-Hinton broth; read-out: minimal inhibitory concentration (MIC)
Text: as §1

[3] = tested on: Pseudomonas aeruginosa 3223; assay: in vitro MIC, standard tube dilution method; format: cell-based; settings: Mueller-Hinton broth, read-out: minimal inhibitory concentration (MIC)
Text: as §1

[4] = tested on: Escherichia coli ATCC 10536; assay: in vitro MIC, standard tube dilution method; format: cell-based; settings: ATCC10536, Mueller-Hinton broth, read-out: minimal inhibitory concentration (MIC)
Text: as §1

[5] = tested on: Staphylococcus aureus 6538P; assay: in vitro MIC, standard tube dilution method; format: cell-based; settings: Mueller-Hinton broth, read-out: minimal inhibitory concentration (MIC)
Text: as §1

[6] = tested on: Pseudomonas aeruginosa St 138; assay: in vitro MIC, standard tube dilution method; format: cell-based; settings: ST138; Pseudomonas aeruginosa St 138 (Gentamicin resistant); Mueller-Hinton broth; read-out: minimal inhibitory concentration (MIC)
Text: as §1

Escherichia coli JR66 = assay: in vitro MIC, standard tube dilution method; format: cell-based; settings: Mueller-Hinton broth, read-out: minimal inhibitory concentration (MIC)
Text: as §1

[7] = tested on: Escherichia coli La290R55; assay: in vitro MIC, standard tube dilution method; format: cell-based; settings: LA290R55, read-out: minimal inhibitory concentration (MIC)
Text: as §1

Salmonella typhi. B. = assay: in vitro MIC, standard tube dilution method; format: cell-based; settings: Salmonella enterica, read-out: minimal inhibitory concentration (MIC)
Text: as §1

Bacillus subtilis 663 = assay: in vitro MIC, standard tube dilution method; format: cell-based; settings: Mueller-Hinton broth, read-out: minimal inhibitory concentration (MIC)
Text: as §1

Klebsiella pneumoniae 17 = assay: in vitro MIC, standard tube dilution method; format: cell-based; settings: Mueller-Hinton broth, read-out: minimal inhibitory concentration (MIC)
Text: as §1

[8] = tested on: Klebsiella pneumoniae 3694; assay: in vitro MIC, standard tube dilution method; format: cell-based; settings: Mueller-Hinton broth, read-out: minimal inhibitory concentration (MIC)
Text: as §1

[9] = tested on: Pseudomonas aeruginosa 762; assay: in vitro MIC, standard tube dilution method; format: cell-based; settings: Mueller-Hinton broth, read-out: minimal inhibitory concentration (MIC)
Text: as §1

[10] = tested on: Pseudomonas aeruginosa 20; assay: in vitro MIC, standard tube dilution method; format: cell-based; settings: Mueller-Hinton broth, read-out: minimal inhibitory concentration (MIC)
Text: as §1

[11] = tested on: Staphylococcus aureus 59N; assay: in vitro MIC, standard tube dilution method; format: cell-based; settings: Mueller-Hinton broth, read-out: minimal inhibitory concentration (MIC)
Text: as §1

[12] = tested on: Staphylococcus aureus Ziegler; assay: in vitro MIC, standard tube dilution method; format: cell-based; settings: Mueller-Hinton broth, read-out: minimal inhibitory concentration (MIC)
Text: as §1

[13] = tested on: gram-positive and gram-negative bacteria; assay: antibacterial spectrum in vitro; format: cell-based; settings: compared with gentamicin C1, C1a, and C2
Text: Thus, the antiobiotic may be used for substantially the same anti-bacterial indications and in the same manner as disclosed in U.S. Pat. No. 3,091,572. For example, it is useful in wash solutions, for sanitary purposes, as in the washing of hands and the cleaning of equipment in contaminated rooms.
as §1

| Compound | LD50 [1] [mg/kg] | MIC (Streptococcus pyogenes C) [µg/mL] | MIC [2] [µg/mL] | MIC [3] [µg/mL] | MIC [4] [µg/mL] | MIC [5] [µg/mL] | MIC [6] [µg/mL] | MIC (Escherichia coli JR66) [µg/mL] | MIC [7] [µg/mL] | MIC (Salmonella typhi. B.) [µg/mL] | MIC (Bacillus subtilis 663) [µg/mL] | MIC (Klebsiella pneumoniae 17) [µg/mL] | MIC [8] [µg/mL] | MIC [9] [µg/mL] | MIC [10] [µg/mL] | MIC [11] [µg/mL] | MIC [12] [µg/mL] | antibacterial spectrum in vitro [13] |
| --- | --- | --- | --- | --- | --- | --- | --- | --- | --- | --- | --- | --- | --- | --- | --- | --- | --- | --- |
| CN[C@@H]1[C@@H](O)[C@@H](O[C@@H]2[C@@H](O)[C@H](O[C@H]3O[C@H]([C@@H](C)N)CC[C@H]3N)[C@@H](N)C[C@H]2N)OC[C@]1(C)O [gentamicin C2] | 83 |  |  |  |  |  |  |  |  |  |  |  |  |  |  |  |  |  |
| CN[C@@H]1[C@@H](O)[C@@H](O[C@@H]2[C@@H](O)[C@H](O[C@H]3O[C@H]([C@H](C)N)CC[C@H]3N)[C@@H](N)C[C@H]2N)OC[C@]1(C)O [gentamicin C2a] | 110 | 7.5 (≈ 16.2 µM) | > 25 | 0.3 (≈ 0.647 µM) | 0.3 (≈ 0.647 µM) | 0.3 (≈ 0.647 µM) | > 25 | 7.5 (≈ 16.2 µM) | 17.5 (≈ 37.8 µM) | 0.3 (≈ 0.647 µM) | 0.1 (≈ 0.216 µM) | 0.8 (≈ 1.73 µM) | 17.5 (≈ 37.8 µM) | 0.8 (≈ 1.73 µM) | 3 (≈ 6.47 µM) | 0.3 (≈ 0.647 µM) | 0.3 (≈ 0.647 µM) | substantially the same antibacterial spectrum in vitro as do gentamicin C1, C1a, and C2 |
